According to patent publication US12239643B2, “Therapeutic agent for inflammatory diseases, autoimmune diseases, fibrotic diseases, and cancer diseases” (MEIJI SEIKA PHARMA CO., LTD., priority 2018, dated 2025):

Columns and labels:
[1] = Hepatic metabolic stability (rat liver microsome method); type: in vitro ADME; conditions: rat liver microsomes 0.5 mg/mL, test substance 1 μM, NADPH 1 mM, 37° C., 30 minutes
How it was run: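 Rat liver microsomes (0.5 mg/mL final) with test compound (1 μM final) in 100 mM potassium phosphate pH 7.4, 37° C; reaction started with NADPH (1 mM final) after 5 min preincubation. Acetonitrile stop at 0 and 30 min, LC-MS quantitation; % remaining = 30 min/0 min ×100, graded A ≥75%, B 60–<75%, C 45–<60%, D <45%.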

[2] = tested on: TNFα; assay: Cytokine suppression using whole human blood: TNFα (lipopolysaccharide stimulus); type: cell-based; conditions: read-out: TNFα Inhibitory Activity, Human Whole Blood (Test Example 3)
Procedure: The test compound dissolved in dimethyl sulfoxide was added to a 96-well plate, and RPMI-1640 medium and human peripheral blood containing sodium heparin were added, followed by culture at 37° C. under 5% CO2 for 1 hour. A medium containing only dimethyl sulfoxide instead of the test compound was added to the control well. To each well, lipopolysaccharide (final concentration 10 ng/mL) as a TNFα production stimulant, or phytohaemagglutinin (final concentration 20 μg/mL) as an IL-17A production stimulant, or CytoStim reagent ( 1/100 concentration) and CD28 antibody (final concentration 2.5 ng/mL) as an IL-4 production stimulant and an IL-5 production stimulant were added, followed by culture at 37° C. under 5% CO2. The culture was carried out for about 18 hours for the evaluation of the amount of TNFα, and for about 48 hours for the evaluation of the amounts of IL-17A, IL-4, and IL-5.
After collecting the culture supernatant after culturing, the amount of each cytokine was measured by the sandwich ELISA method. The cytokine production suppression rate (inhibition rate) by the test compound was calculated by the following formula from the cytokine production amount when the test compound was added, with the cytokine production amount for the control well as 100%. Inhibition Rate={1−(Cytokine Amount at Addition of Each Test Compound)/(Cytokine Amount for Control Well)}×100
In addition, the cytokine inhibitory activity (concentration for the inhibition rate of 50%) of the test compound was calculated from the inhibition curves based on the inhibition rates for various concentrations of the test compound.
The measurement results obtained by measuring the TNFα inhibitory activity and IL-5 inhibitory activity (50% inhibitory concentration) of the test compounds by the above method were evaluated in accordance with the following evaluated basis; A: less than 100 nM, B: 100 nM or more and less than 500 nM, and C: 500 nM or more. In addition, the measurement results obtained by measuring the IL-17A inhibitory activity and IL-4 inhibitory activity (50% inhibitory concentration) of the test compounds were evaluated in accordance with the following evaluated basis; A: less than 500 nM, B: 500 nM or more and less than 5000 nM, and C: 5000 nM or more.

[3] = tested on: TNFα; assay: Cytokine suppression using human peripheral blood mononuclear cells: TNFα; type: cell-based; conditions: read-out: TNFα Inhibitory Activity, Human PBMC (Test Example 4)
Procedure: First, peripheral blood mononuclear cells (PBMC) were separated from whole blood by specific gravity centrifugation. Then, the isolated peripheral blood mononuclear cells were added to RPMI-1640 medium (containing 10% fetal bovine serum, penicillin, streptomycin, L-glutamine, and 2-mercaptoethanol), and cultured in a 96-well plate at 37° C. under 5% CO2 for 0 to 1 hour. The test compound dissolved in dimethyl sulfoxide was added to each well, followed by further culture at 37° C. under 5% CO2 for 1 hour. A medium containing only dimethyl sulfoxide instead of the test compound was added to the control well. To each well, lipopolysaccharide (final concentration 1 ng/mL) as a TNFα production stimulant and an IL-23 production stimulant, or concanavalin A (final concentration 20 μg/mL) as an IL-17A production stimulant was added, followed by culture at 37° C. under 5% CO2. In addition, as IL-4 production stimulus, IL-5 production stimulus, and IL-13 production stimulus, PBMC was seeded on a 96-well plate previously coated with a CD3 antibody (final concentration 3 μg/mL), and a CD28 antibody (final concentration 5 ng/mL) was added. The culture was carried out for about 18 hours for the evaluation of the amounts of TNFα and IL-23, and about 48 hours for the evaluation of the amounts of IL-17A, IL-4, IL-5, and IL-13. After collecting the culture supernatant after culturing, the amount of each cytokine was measured by the sandwich ELISA method in the same manner as in Test Example 3, and the cytokine production suppression rate (inhibition rate) and the cytokine inhibitory activity (concentration for the inhibition rate of 50%) of each test compound were calculated.
The measurement results obtained by measuring the TNFα inhibitory activity and IL-5 inhibitory activity (50% inhibitory concentration) of the test compounds by the above method were evaluated in accordance with the following evaluated basis; A: less than 10 nM, B: 10 nM or more and less than 100 nM, and C: 100 nM or more. In addition, the measurement results obtained by measuring the IL-17A inhibitory activity, IL-23 inhibitory activity, IL-4 inhibitory activity, and IL-13 inhibitory activity (50% inhibitory concentration) of the test compounds were evaluated in accordance with the following evaluated basis; A: less than 500 nM, B: 500 nM or more and less than 5000 nM, and C: 5000 nM or more.

[4] = human PBMC, lipopolysaccharide 1 ng/mL
[5] = Homo sapiens, human whole blood

Row | Structure (SMILES) | Residual ratio (% remaining for 30-minute reaction) [1] | IC50 ([2]; human whole blood) | IC50 [3, 4] | IC50 [2, 5] | IC50 ([2]; Homo sapiens) | IC50 ([3]; Homo sapiens, PBMC)
1 | CC(O)C(F)(F)Oc1ccc(-c2nccs2)c2oc(N3CC4CC(C3)N4)nc12 (single isomer, unassigned) [Example 252, 1-((2-(3,6-Diazabicyclo[3.1.1]heptan-3-yl)-7-(thiazol-2-yl)benzo[d]oxazol-4-yl)oxy)-1,1-difluoropropan-2-ol] | A (A: a % remaining rate of 75% or more) | < 100 nM | < 10 nM | – | – | –
2 | FC(F)(F)Oc1ccc(-c2nccs2)c2oc(N3CC4CC(C3)N4)nc12 [Example 29, 2-(3,6-Diazabicyclo[3.1.1]heptan-3-yl)-7-(thiazol-2-yl)-4-(trifluoromethoxy)benzo[d]oxazole] | B (B: 60% or more and less than 75%) | – | – | < 100 nM | – | –
3 | CC(C)(O)C(F)(F)Oc1ccc(-c2nccs2)c2oc(N3CC4CC(C3)N4)nc12 [Example 248, 1-((2-(3,6-Diazabicyclo[3.1.1]heptan-3-yl)-7-(thiazol-2-yl)benzo[d]oxazol-4-yl)oxy)-1,1-difluoro-2-methylpropan-2-ol] | A (A: a % remaining rate of 75% or more) | – | < 10 nM | < 100 nM | – | –
4 | CCOc1cc([C@@H](CS(C)(=O)=O)N2C(=O)c3cccc(NC(C)=O)c3C2=O)ccc1OC [apremilast, reference compound] | – | – | – | – | > 500 nM | 10 to 100 nM
